This note sets out measurements from patent US9783545B2, “Pyrazolopyridazines and methods for treating retinal-degenerative diseases and hearing loss associated with usher syndrome” (Usher III Initiative, Inc., priority 2012, dated 2017).

Structures are written as SMILES. pEC50, pIC50: −log10 of the molar value.

One assay has as its target T1, N48K Clarin-1 (Homo sapiens, UniProt P58418, N48K).
T1 construct: expressed in transfected cells
T1 sequence (P58418 1-232 N48K): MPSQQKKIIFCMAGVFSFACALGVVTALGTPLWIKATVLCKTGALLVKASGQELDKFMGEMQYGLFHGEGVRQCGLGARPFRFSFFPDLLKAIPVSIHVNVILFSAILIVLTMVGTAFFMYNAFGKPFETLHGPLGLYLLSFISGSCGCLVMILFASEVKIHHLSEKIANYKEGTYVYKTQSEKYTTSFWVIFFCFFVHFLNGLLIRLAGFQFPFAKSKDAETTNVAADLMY
Kind of assay: Restoration of expression of N48K Clarin-1, 2 hour incubation then 22 hr fresh medium (high content imaging of HA-tagged N48K Clarin-1). Format: cell-based. Particulars: HEK293-Clarin-1 N48K-HA D9 cell line, 2 hr incubation with compound, then 22 hr in fresh medium. As for the experimental part: An Assay Method Showing Activity of Compounds of the Invention that Restore Expression of N48K Clarin-1(2 hour incubation)
(§1) Clarin-1 is the protein encoded by the gene mutated in Usher III Syndrome (Adato et al., 2002). The most prevalent mutation in Clarin-1 in North America is N48K, which is reported to cause loss of glycosylation and a trafficking defect (Tian et al., 2009). […] Thus it is believed that restoring the trafficking of N48K Clarin-1 to the cell surface provides an avenue of intervention for Usher III Sydrome.
(§2) In a typical experiment, these cells were seeded on collagen-coated 96-well plates at a cell density of 20,000 cells per well in Dulbecco's Modified Eagle Medium (DMEM) contain 10% fetal bovine serum in a humidified incubator at 37° C., 5% CO2. After an overnight incubation, compounds were added for a 2 hr incubation in DMEM medium contain 10% fetal bovine serum in a humidified incubator at 37° C., 5% CO2. As a negative control, DMSO was used at 0.25% final concentrations. Compounds were typically tested in triplicate fashion. After the 2 hr incubation with compounds, the cells were incubated in fresh medium for 22 hr. The cells were then fixed by the addition of 10% buffered formalin to the wells to achieve a final concentration of 4% formalin. After a 20 min fixation at room temperature, wells were washed three times with phosphate-buffered saline (PBS) containing Triton X-100 (0.02 phosphate, 150 mM NaCl, 0.1% Triton X-100).
(§3) The HA-tagged N48K Clarin-1 was detected with an antibody against the HA tag (HA.11 Clone 16B12 Monoclonal antibody, Covance #MMS-101P) at a dilution of 1:1000 in PBS containing Triton X-100. After a 90 min incubation, wells were washed three times with PBS containing Triton X-100, and a secondary antibody (Goat anti-mouse IgG-Cy3 (1.5 mg/ml), Jackson IR Europe #115165003) was added to the wells at a dilution of 1:250 in PBS containing Triton X-100 for 45 min. Wells were subsequently washed three times with PBS containing Triton X-100, and a final staining for nuclei was performed by the addition of DAPI (4′,6-diamidino-2-phenylindole) at a dilution of 1:10,000. The imaging of the stained cells was performed on an InCell 1000 High Content Imager (GE Healthcare), reading out the Cy3 channel for N48K Clarin-1 and the DAPI channel for nuclei. The images are analyzed and quantitated using a specific algorithm. This algorithm measured the HA-Clarin-1 staining for each cell based on the additional nuclear segmentation of the DAPI signal (FIG. 1). This algorithm measured the intensity per cell, and thus it is less sensitive for variation in cell number. Per well, approximately 2,000 cells were measured to achieve an average density per cell measurement.
Turning to `F[C@@H]1CCN(CCn2nc(C3=CCOCC3)c3c(Cl)c(-c4ccccc4)nnc32)C1` [Iq, 4-chloro-3-(3,6-dihydro-2H-pyran-4-yl)-1-[2-[(3R)-3-fluoropyrrolidin-1-yl]ethyl]-5-phenyl-pyrazolo[3,4-c]pyridazine], the negative logarithm of the IC50 (pIC50) was 5.10 to 5.40.

Take `FC1(F)CCN(CCn2nc(-c3ccccc3)c3c(Cl)c(-c4ccccc4)nnc32)C1` [IIv, 4-chloro-1-[2-(3,3-difluoropyrrolidin-1-yl)ethyl]-3,5-diphenyl-pyrazolo[3,4-c]pyridazine]: the negative-log IC50 (pIC50) is 5.10 to 5.40.

Turning to `F[C@@H]1CCN(CCn2nc(I)c3c(Cl)c(-c4ccccc4)nnc32)C1` [Ip, 4-chloro-1-[2-[(3R)-3-fluoropyrrolidin-1-yl]ethyl]-3-iodo-5-phenyl-pyrazolo[3,4-c]pyridazine], the negative-log IC50 (pIC50) is 5.10 to 5.40.

`Clc1c(-c2ccccc2)nnc2c1c(-c1ccccc1)nn2CCn1cccn1` [XIVa, 4-chloro-3,5-diphenyl-1-(2-pyrazol-1-ylethyl)pyrazolo[3,4-c]pyridazine]: the pIC50 is no less than 5.40.

With `CN1CCN(CCn2nc(-c3ccccn3)c3c(Cl)c(-c4ccccc4)nnc32)CC1` [Iy, 4-chloro-1-[2-(4-methylpiperazin-1-yl)ethyl]-5-phenyl-3-(2-pyridyl)pyrazolo[3,4-c]pyridazine], the negative logarithm of the IC50 (pIC50) was no less than 5.40.

Turning to `Cn1nc(-c2ccccc2)c2c(Cl)c(C3=CCCC3)nnc21` [IIIb, 4-chloro-5-(cyclopenten-1-yl)-1-methyl-3-phenyl-pyrazolo[3,4-c]pyridazine], the pIC50 is 5.10 to 5.40.

Consider `Cc1ccc(-c2nn(CCN3CCN(C)CC3)c3nnc(-c4ccccc4)c(Cl)c23)s1` [Icc, 4-chloro-1-[2-(4-methylpiperazin-1-yl)ethyl]-3-(5-methyl-2-thienyl)-5-phenyl-pyrazolo[3,4-c]pyridazine], for which the pIC50 is no less than 5.40.

For `FC1(F)CN(CCn2nc(-c3ccccc3)c3c(Cl)c(-c4ccccc4)nnc32)C1` [IIw, 4-chloro-1-[2-(3,3-dilluoroazetidin-1-yl)ethyl]-3,5-diphenyl-pyrazolo[3,4-c]pyridazine], the pIC50 was 5.10 to 5.40.

Consider `Cc1nn([C@@H]2C[C@H]3CC[C@@H](C2)N3)c2nnc(-c3ccccc3)c(Cl)c12` [XIIIa], for which the negative logarithm of the IC50 (pIC50) was 5.10 to 5.40.

As for `Cn1cncc1Cn1nc(-c2cccn2C)c2c(Cl)c(-c3ccccc3)nnc21` [XIIIb, 4-chloro-1-[(3-methylimidazol-4-yl)methyl]-3-(1-methylpyrrol-2-yl)-5-phenyl-pyrazolo[3,4-c]pyridazine], the negative-log IC50 (pIC50) was 5.10 to 5.40.

For `F[C@H]1CCN(CCn2nc(-c3ccccc3)c3c(Cl)c(-c4ccccc4)nnc32)C1` [IIt, 4-chloro-1-[2-[(3S)-3-fluoropyrrolidin-1-yl]ethyl]-3,5-diphenyl-pyrazolo[3,4-c]pyridazine], the pIC50 is no less than 5.40.

On to `CN1CCN(CCn2nc(N3CCCC3)c3c(Cl)c(-c4ccccc4)nnc32)CC1` [Iz, 4-chloro-1-[2-(4-methylpiperazin-1-yl)ethyl]-5-phenyl-3-pyrrolidin-1-yl-pyrazolo[3,4-c]pyridazine], for which the pIC50 is no less than 5.40.

For the molecule `Cn1nc(-c2ccccc2)c2c(Cl)c(I)nnc21` [IIIa, 4-chloro-5-iodo-1-methyl-3-phenyl-pyrazolo[3,4-c]pyridazine], the pIC50 was 5.10 to 5.40.

For `O=C(Cn1nc(I)c2c(Cl)c(-c3ccccc3)nnc21)N1CC[C@@H](F)C1` [It, 2-(4-chloro-3-iodo-5-phenyl-pyrazolo[3,4-c]pyridazin-1-yl)-1-[(3R)-3-fluoropyrrolidin-1-yl]ethanone], the pIC50 is 5.10 to 5.40.

Take `Cn1nc(N2CCCC2)c2c(Cl)c(-c3ccccc3)nnc21` [XIIIc, 4-chloro-1-methyl-5-phenyl-3-pyrrolidin-1-yl-pyrazolo[3,4-c]pyridazine]: the negative-log IC50 (pIC50) is 4.92 to 5.10.

As for `CS(=O)(=O)CCn1nc(C2CC2)c2c(Cl)c(-c3ccccc3)nnc21` [Ix, 4-chloro-3-cyclopropyl-1-(2-methylsulfonylethyl)-5-phenyl-pyrazolo[3,4-c]pyridazine], the negative logarithm of the IC50 (pIC50) was 4.92 to 5.10.

Regarding `Cc1nn(CCN2CCCC2)c2nnc(-c3ccccc3)c(Cl)c12` [XIIId, 4-chloro-3-methyl-5-phenyl-1-(2-pyrrolidin-1-ylethyl)pyrazolo[3,4-c]pyridazine], the pIC50 is 5.10 to 5.40.

The next assay concerns the target T1, N48K Clarin-1. Kind of assay: Restoration of expression of N48K Clarin-1, 24 hour incubation (high content imaging of HA-tagged N48K Clarin-1). The settings on record: HEK293-Clarin-1 N48K-HA D9 cell line, 24 hr incubation with compound; read-out: IC50 (the source's name). It is filed as cell-based. As to the method: Assay Method Showing Activity of Compounds of the Invention that Restore Expression of N48K Clarin-1 (24 hour incubation)
as §1
as §2, with “for a 24 hr incubation” for “for a 2 hr incubation”, “After the 24 hr incubation” for “After the 2 hr incubation”, “cells were fixed by” for “cells were incubated in fresh medium for 22 hr. The cells were then fixed by”
as §3, with “images were” for “images are”, “measurement. FIG. 1 illustrates high content analysis. DAPI-stained nuclei are used to perform segmentation of the image into individual cells. The density observed in the N48K Clarin-1 channel (Cy3) is then calculated per cell averaged over a field.” for “measurement.”
In the case of `CN1CCN(CCn2nc(-c3ccnc(C(F)(F)F)c3)c3c(Cl)c(-c4ccccc4)nnc32)CC1` [Ie, 4-chloro-1-(2-(4-methylpiperazin-1-yl)ethyl)-5-phenyl-3-(2-(trifluoromethyl)pyridin-4-yl)-1H-pyrazolo[3,4-c]pyridazine], the pEC50 was no less than 5.70.

On to `CC(=O)CCn1nc(-c2ccccc2)c2c(Cl)c(-c3ccccc3)nnc21` [IIm, 4-(4-chloro-3,5-diphenyl-pyrazolo[3,4-c]pyridazin-1-yl)butan-2-one], for which the pEC50 was no less than 5.70.

Turning to `Cc1nn(C)c2nnc(-c3ccccc3)c(Br)c12` [Compound 23, 4-bromo-1,3-dimethyl-5-phenyl-pyrazolo[3,4-c]pyridazine], the pEC50 was 5.30 to 5.70.

For `CN1CCN(CCn2nc(-c3ccc(C(F)(F)F)nc3)c3c(Cl)c(-c4ccccc4)nnc32)CC1` [Ih, 4-chloro-1-(2-(4-methylpiperazin-1-yl)ethyl)-5-phenyl-3-(6-(trifluoromethyl)pyridin-3-yl)-1H-pyrazolo[3,4-c]pyridazine], the pEC50 is 5.30 to 5.70.

Turning to `Cc1nn(C)c2nnc(-c3ccccc3)c(Cl)c12` [Compound 22, 4-chloro-1,3-dimethyl-5-phenyl-pyrazolo[3,4-c]pyridazine], the pEC50 is no less than 5.70.

For `CN1CCN(CCn2ncc3c(Cl)c(-c4ccccc4)nnc32)CC1` [Ib, 4-Chloro-1-(2-(4-methylpiperazin-1-yl)ethyl)-5-phenyl-1H-pyrazolo[3,4-c]pyridazine], the pEC50 was 4.68 to 5.30.

With `Cn1nc(C2CC2)c2c(Cl)c(-c3ccccc3)nnc21` [Compound 21, 4-chloro-3-cyclopropyl-1-methyl-5-phenyl-pyrazolo[3,4-c]pyridazine], the pEC50 is 5.30 to 5.70.
